Data: patent US7745575B1 (Cellpep Pharma Inc., priority 2004, dated 2010)
Bridge positions count the residues as written; N and C are the ends. Peptide text beside a SMILES is read from it.

How the values were obtained:
mKv1.3 = mKv1.3 (Mus musculus, UniProt P16390); assay: patch-clamp whole-cell recording, K+ current block; type: cell-based
Procedure: Electrophysiological experiments were carried out at 22-24° C. using the patch-clamp whole-cell recording mode. Cells were bathed with mammalian Ringer's solution (in mM): 160 NaCl, 4.5 KCl, 2 CaCl2, 1 MgCl2, and 10 HEPES (pH 7.4 with NaOH), with an osmolarity of 290-320 mOsm. […] A syringe-driven perfusion device was used to exchange the external recording bath solution. Two internal pipette solutions were used, one for measuring voltage-gated K^+ currents that contained (in mM): 155 KF, 2 MgCl2, 10 HEPES, and 10 EGTA (pH 7.2 with KOH), with an osmolarity of 290-320 mOsm and another for measuring Ca^2+-activated K^+ currents that contained (in mM): 135 K-aspartate, 8.7 CaCl2, 2 MgCl2, 10 EGTA, 10 HEPES (pH 7.2 with KOH), with an osmolarity of 290-320 mOsm. A free [Ca^2+]i of 1 μM was calculated. All currents through voltage-gated K^+ channels were elicited by 200 ms depolarising voltage steps from −80 to +40 mV. Potassium currents through KCa1.1, KCa2.1 and KCa3.1 were elicited by 1 μM internal [Ca^2+]i and 400 ms voltage ramps from −120 to 0 mV (for KCa3.1 channel and KCa1.1 channel) and from −120 to +40 mV (for KCa2.1 channel). Electrodes were pulled from glass capillaries (Science Products, Germany), and fire-polished to resistances of 2.5-5 MΩ. Membrane currents were measured with an EPC-9 or EPC-10 patch-clamp amplifier (HEKA Elektronik, Lambrecht, Germany) interfaced to a Macintosh computer running acquisition and analysis software (Pulse and PulseFit). When voltage-gated K^+ currents were measured, the capacitive and leak currents were subtracted using a P/10 procedure. Series resistance compensation (>80%) was used for currents above 2 nA. The holding potential was −80 mV in all experiments.

[1] = toxicity in vivo, LD50 after intracerebroventricular injection; conditions: mouse, icv or intrathecal, 20 g C57/BL6 mice
Procedure: Groups of six to eight mice per dose were injected with 5 μl peptide solution containing 0.1% (w/v) bovine serum albumin and 0.9% (w/v) NaCl. The LD50 values are set out in Table 5.

Sequence of mKv1.3 (P16390 whole entry, the tested form may be a part): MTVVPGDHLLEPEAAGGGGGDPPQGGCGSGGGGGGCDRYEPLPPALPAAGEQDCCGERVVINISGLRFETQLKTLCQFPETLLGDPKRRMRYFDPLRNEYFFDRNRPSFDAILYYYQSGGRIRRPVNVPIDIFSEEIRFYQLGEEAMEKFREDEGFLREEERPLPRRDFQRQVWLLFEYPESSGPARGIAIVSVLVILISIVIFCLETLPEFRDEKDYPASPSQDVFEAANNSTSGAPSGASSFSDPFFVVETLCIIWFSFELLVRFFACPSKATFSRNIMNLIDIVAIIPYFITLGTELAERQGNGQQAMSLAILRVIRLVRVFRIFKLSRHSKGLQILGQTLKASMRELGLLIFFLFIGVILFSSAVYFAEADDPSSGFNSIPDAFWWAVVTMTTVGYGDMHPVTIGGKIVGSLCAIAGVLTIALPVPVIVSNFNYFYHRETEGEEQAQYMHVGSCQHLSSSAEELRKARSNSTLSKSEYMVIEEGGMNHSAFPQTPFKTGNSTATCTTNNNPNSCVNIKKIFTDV

| Compound | IC50 (mKv1.3) [nM] | LD50 [1] [µg/kg] |
| --- | --- | --- |
| CC[C@H](C)[C@@H]1NC(=O)[C@H](CCCCN)NC(=O)[C@@H](NC(=O)[C@H](CCCCN)NC(=O)[C@@H](NC(=O)[C@H](CC(N)=O)NC(=O)[C@@H](NC(=O)[C@@H](NC(=O)[C@@H](NC(=O)CN)C(C)C)[C@@H](C)CC)[C@@H](C)CC)C(C)C)CSSC[C@@H]2NC(=O)[C@H](CCCCN)NC(=O)CNC(=O)[C@H](Cc3ccccc3)NC(=O)[C@H](CCCNC(=N)N)NC(=O)[C@H](CCSC)NC(=O)CNC(=O)[C@H](C)NC(=O)[C@H](CCCCN)NC(=O)[C@H](CCCCN)NC(=O)[C@@H]3CSSC[C@@H](C(=O)N[C@H](C(=O)N4CCC[C@H]4C(=O)N[C@@H](CCCCN)C(=O)O)[C@@H](C)O)NC(=O)[C@H](Cc4c[nH]cn4)NC(=O)[C@H](CSSC[C@H](NC(=O)[C@H](CCC(N)=O)NC(=O)[C@H](CCCNC(=N)N)NC(=O)[C@H](CO)NC1=O)C(=O)N[C@@H](CC(C)C)C(=O)N[C@@H](CCCCN)C(=O)N1CCC[C@H]1C(=O)N3)NC(=O)[C@H](CCCCN)NC(=O)CNC(=O)[C@H](CC(N)=O)NC(=O)[C@H](CCSC)NC2=O [[K^16]-OsK1] (H-GVIINVKCKISRQCLKPCKKAGMRFGKCMNGKCHCTPK-OH; disulfide 8-28, 14-33, 18-35) | 0.067 ± 0.006 | 3 |
| CC[C@H](C)[C@@H]1NC(=O)[C@H](CCCCN)NC(=O)[C@@H](NC(=O)[C@H](CCCCN)NC(=O)[C@@H](NC(=O)[C@H](CC(N)=O)NC(=O)[C@@H](NC(=O)[C@@H](NC(=O)[C@@H](NC(=O)CN)C(C)C)[C@@H](C)CC)[C@@H](C)CC)C(C)C)CSSC[C@@H]2NC(=O)[C@H](CCCCN)NC(=O)CNC(=O)[C@H](Cc3ccccc3)NC(=O)[C@H](CCCNC(=N)N)NC(=O)[C@H](CCSC)NC(=O)CNC(=O)[C@H](C)NC(=O)[C@H](CC(=O)O)NC(=O)[C@H](CCCCN)NC(=O)[C@@H]3CSSC[C@@H](C(=O)N[C@H](C(=O)N4CCC[C@H]4C(=O)N[C@@H](CCCCN)C(=O)O)[C@@H](C)O)NC(=O)[C@H](Cc4c[nH]cn4)NC(=O)[C@H](CSSC[C@H](NC(=O)[C@H](CCC(N)=O)NC(=O)[C@@H]4CCCN4C(=O)[C@H](CO)NC1=O)C(=O)N[C@@H](CC(C)C)C(=O)N[C@@H](CCCCN)C(=O)N1CCC[C@H]1C(=O)N3)NC(=O)[C@H](CCCCN)NC(=O)CNC(=O)[C@H](CC(N)=O)NC(=O)[C@H](CCSC)NC2=O (H-GVIINVKCKISPQCLKPCKDAGMRFGKCMNGKCHCTPK-OH; disulfide 8-28, 14-33, 18-35) |  | 7.5 |
| CC[C@H](C)[C@@H]1NC(=O)[C@H](CCCCN)NC(=O)[C@@H](NC(=O)[C@@H](N)CCCCN)CSSC[C@@H]2NC(=O)[C@H](CCCCN)NC(=O)CNC(=O)[C@H](Cc3ccccc3)NC(=O)[C@H](CCCNC(=N)N)NC(=O)[C@H](CCSC)NC(=O)CNC(=O)[C@H](C)NC(=O)[C@H](CC(=O)O)NC(=O)[C@H](CCCCN)NC(=O)[C@@H]3CSSC[C@@H](C(=O)N[C@H](C(=O)N4CCC[C@H]4C(=O)N[C@@H](CCCCN)C(=O)O)[C@@H](C)O)NC(=O)[C@H](Cc4c[nH]cn4)NC(=O)[C@H](CSSC[C@H](NC(=O)[C@H](CCC(N)=O)NC(=O)[C@H](CCCNC(=N)N)NC(=O)[C@H](CO)NC1=O)C(=O)N[C@@H](CC(C)C)C(=O)N[C@@H](CCCCN)C(=O)N1CCC[C@H]1C(=O)N3)NC(=O)[C@H](CCCCN)NC(=O)CNC(=O)[C@H](CC(N)=O)NC(=O)[C@H](CCSC)NC2=O (H-KCKISRQCLKPCKDAGMRFGKCMNGKCHCTPK-OH; disulfide 2-22, 8-27, 12-29) |  | 6.5 |
| CC[C@H](C)[C@@H]1NC(=O)[C@H](CCCCN)NC(=O)[C@@H](N)CSSC[C@@H]2NC(=O)[C@H](CCCCN)NC(=O)CNC(=O)[C@H](Cc3ccccc3)NC(=O)[C@H](CCCNC(=N)N)NC(=O)[C@H](CCSC)NC(=O)CNC(=O)[C@H](C)NC(=O)[C@H](CC(=O)O)NC(=O)[C@H](CCCCN)NC(=O)[C@@H]3CSSC[C@@H](C(=O)N[C@H](C(=O)N4CCC[C@H]4C(=O)N[C@@H](CCCCN)C(=O)O)[C@@H](C)O)NC(=O)[C@H](Cc4c[nH]cn4)NC(=O)[C@H](CSSC[C@H](NC(=O)[C@H](CCC(N)=O)NC(=O)[C@H](CCCNC(=N)N)NC(=O)[C@H](CO)NC1=O)C(=O)N[C@@H](CC(C)C)C(=O)N[C@@H](CCCCN)C(=O)N1CCC[C@H]1C(=O)N3)NC(=O)[C@H](CCCCN)NC(=O)CNC(=O)[C@H](CC(N)=O)NC(=O)[C@H](CCSC)NC2=O (H-CKISRQCLKPCKDAGMRFGKCMNGKCHCTPK-OH; disulfide 1-21, 7-26, 11-28) |  | 15 |
| CC[C@H](C)[C@@H]1NC(=O)[C@H](CCCCN)NC(=O)[C@@H](NC(=O)[C@H](CCCCN)NC(=O)[C@@H](NC(=O)[C@H](CC(N)=O)NC(=O)[C@@H](NC(=O)[C@@H](NC(=O)[C@@H](N)C(C)C)[C@@H](C)CC)[C@@H](C)CC)C(C)C)CSSC[C@@H]2NC(=O)[C@H](CCCCN)NC(=O)CNC(=O)[C@H](Cc3ccccc3)NC(=O)[C@H](CCCNC(=N)N)NC(=O)[C@H](CCSC)NC(=O)CNC(=O)[C@H](C)NC(=O)[C@H](CC(=O)O)NC(=O)[C@H](CCCCN)NC(=O)[C@@H]3CSSC[C@@H](C(=O)N[C@H](C(=O)N4CCC[C@H]4C(=O)N[C@@H](CCCCN)C(=O)O)[C@@H](C)O)NC(=O)[C@H](Cc4c[nH]cn4)NC(=O)[C@H](CSSC[C@H](NC(=O)[C@H](CCC(N)=O)NC(=O)[C@H](CCCNC(=N)N)NC(=O)[C@H](CO)NC1=O)C(=O)N[C@@H](CC(C)C)C(=O)N[C@@H](CCCCN)C(=O)N1CCC[C@H]1C(=O)N3)NC(=O)[C@H](CCCCN)NC(=O)CNC(=O)[C@H](CC(N)=O)NC(=O)[C@H](CCSC)NC2=O (H-VIINVKCKISRQCLKPCKDAGMRFGKCMNGKCHCTPK-OH; disulfide 7-27, 13-32, 17-34) |  | 3 |
| CC[C@H](C)[C@@H]1NC(=O)[C@H](CCCCN)NC(=O)[C@@H](NC(=O)[C@H](CCCCN)NC(=O)[C@@H](NC(=O)[C@H](CC(N)=O)NC(=O)[C@@H](NC(=O)[C@@H](NC(=O)[C@@H](NC(=O)CNC(C)=O)C(C)C)[C@@H](C)CC)[C@@H](C)CC)C(C)C)CSSC[C@@H]2NC(=O)[C@H](CCCCN)NC(=O)CNC(=O)[C@H](Cc3ccccc3)NC(=O)[C@H](CCCNC(=N)N)NC(=O)[C@H](CCSC)NC(=O)CNC(=O)[C@H](C)NC(=O)[C@H](CC(=O)O)NC(=O)[C@H](CCCNC(=N)N)NC(=O)[C@@H]3CSSC[C@@H](C(=O)N[C@H](C(=O)N4CCC[C@H]4C(=O)N[C@@H](CCCCN)C(=O)O)[C@@H](C)O)NC(=O)[C@H](Cc4c[nH]cn4)NC(=O)[C@H](CSSC[C@H](NC(=O)[C@H](CCC(N)=O)NC(=O)[C@H](CCCCN)NC(=O)[C@H](CO)NC1=O)C(=O)N[C@@H](CC(C)C)C(=O)N[C@@H](CCCCN)C(=O)N1CCC[C@H]1C(=O)N3)NC(=O)[C@H](CCCCN)NC(=O)CNC(=O)[C@H](CC(N)=O)NC(=O)[C@H](CCSC)NC2=O (Ac-GVIINVKCKISKQCLKPCRDAGMRFGKCMNGKCHCTPK-OH; disulfide 8-28, 14-33, 18-35) |  | 17.5 |
| CC[C@H](C)[C@@H]1NC(=O)[C@H](CCCCN)NC(=O)[C@@H](NC(=O)[C@H](CCCCN)NC(=O)[C@@H](NC(=O)[C@H](CC(N)=O)NC(=O)[C@@H](NC(=O)[C@@H](NC(=O)[C@@H](NC(=O)CN)C(C)C)[C@@H](C)CC)[C@@H](C)CC)C(C)C)CSSC[C@@H]2NC(=O)[C@H](CCCCN)NC(=O)CNC(=O)[C@H](Cc3ccccc3)NC(=O)[C@H](CCCNC(=N)N)NC(=O)[C@H](CCSC)NC(=O)CNC(=O)[C@H](C)NC(=O)[C@H](CC(=O)O)NC(=O)[C@H](CCCCN)NC(=O)[C@@H]3CSSC[C@@H](C(=O)O)NC(=O)[C@H](Cc4c[nH]cn4)NC(=O)[C@H](CSSC[C@H](NC(=O)[C@H](CCC(N)=O)NC(=O)[C@H](CCCNC(=N)N)NC(=O)[C@H](CO)NC1=O)C(=O)N[C@@H](CC(C)C)C(=O)N[C@@H](CCCCN)C(=O)N1CCC[C@H]1C(=O)N3)NC(=O)[C@H](CCCCN)NC(=O)CNC(=O)[C@H](CC(N)=O)NC(=O)[C@H](CCSC)NC2=O (H-GVIINVKCKISRQCLKPCKDAGMRFGKCMNGKCHC-OH; disulfide 8-28, 14-33, 18-35) |  | 800 |
| CC[C@H](C)[C@@H]1NC(=O)[C@H](CCCCN)NC(=O)[C@@H](NC(=O)[C@H](CCCCN)NC(=O)[C@@H](NC(=O)[C@H](CC(N)=O)NC(=O)[C@@H](NC(=O)[C@@H](NC(=O)[C@@H](NC(=O)CN)C(C)C)[C@@H](C)CC)[C@@H](C)CC)C(C)C)CSSC[C@@H]2NC(=O)[C@H](CCCCN)NC(=O)CNC(=O)[C@H](Cc3ccccc3)NC(=O)[C@H](CCCNC(=N)N)NC(=O)[C@H](CCSC)NC(=O)CNC(=O)[C@H](C)NC(=O)[C@H](CCCCN)NC(=O)[C@H](CCCCN)NC(=O)[C@@H]3CSSC[C@@H](C(=O)N[C@H](C(=O)N4CCC[C@H]4C(=O)N[C@@H](CCCCN)C(N)=O)[C@@H](C)O)NC(=O)[C@H](Cc4c[nH]cn4)NC(=O)[C@H](CSSC[C@H](NC(=O)[C@H](CCC(N)=O)NC(=O)[C@H](CCCNC(=N)N)NC(=O)[C@H](CO)NC1=O)C(=O)N[C@@H](CC(C)C)C(=O)N[C@@H](CCC(=O)O)C(=O)N1CCC[C@H]1C(=O)N3)NC(=O)[C@H](CCCCN)NC(=O)CNC(=O)[C@H](CC(N)=O)NC(=O)[C@H](CCSC)NC2=O [OsK1-NH2] |  | 3.5 |
